According to patent publication US20230144824A1, “1H-PYRAZOLO[4,3-d]PYRIMIDINE COMPOUNDS AS TOLL-LIKE RECEPTOR 7 (TLR7) AGONISTS” (BRISTOL-MYERS SQUIBB COMPANY, priority 2020, published 2023):
Read-outs that look alike come from different tables or passages of the source.

Assays:
CD69 = test: Induction of CD69 in human whole blood; format: cell-based; conditions: 100% set to 1 uM of resiquimod, average where assay performed multiple times, read-out: hWB CD69 EC50
Method in brief: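 Heparinized human whole blood treated with TLR7 agonist at final 1 uM and incubated 17 h at 37° C. CD69 surface staining alongside CD14 and CD19, then fix/lysis and flow cytometry on iQuePlus. Curves fitted with 1 uM resiquimod set as 100%.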

human TLR7 = molecular target: T1, human TLR7 (Homo sapiens, UniProt Q9NYK1); test: Human TLR7 agonist activity assay (HEK-Blue TLR7 SEAP reporter); format: cell-based; conditions: HEK-Blue TLR7 cells, 18 h treatment, average where assay performed multiple times, read-out: hTLR7 Agonism EC50
T1 construct: host or cells: HEK-Blue TLR7 cells (engineered human embryonic kidney cells)
T1 sequence (Q9NYK1 27-1049): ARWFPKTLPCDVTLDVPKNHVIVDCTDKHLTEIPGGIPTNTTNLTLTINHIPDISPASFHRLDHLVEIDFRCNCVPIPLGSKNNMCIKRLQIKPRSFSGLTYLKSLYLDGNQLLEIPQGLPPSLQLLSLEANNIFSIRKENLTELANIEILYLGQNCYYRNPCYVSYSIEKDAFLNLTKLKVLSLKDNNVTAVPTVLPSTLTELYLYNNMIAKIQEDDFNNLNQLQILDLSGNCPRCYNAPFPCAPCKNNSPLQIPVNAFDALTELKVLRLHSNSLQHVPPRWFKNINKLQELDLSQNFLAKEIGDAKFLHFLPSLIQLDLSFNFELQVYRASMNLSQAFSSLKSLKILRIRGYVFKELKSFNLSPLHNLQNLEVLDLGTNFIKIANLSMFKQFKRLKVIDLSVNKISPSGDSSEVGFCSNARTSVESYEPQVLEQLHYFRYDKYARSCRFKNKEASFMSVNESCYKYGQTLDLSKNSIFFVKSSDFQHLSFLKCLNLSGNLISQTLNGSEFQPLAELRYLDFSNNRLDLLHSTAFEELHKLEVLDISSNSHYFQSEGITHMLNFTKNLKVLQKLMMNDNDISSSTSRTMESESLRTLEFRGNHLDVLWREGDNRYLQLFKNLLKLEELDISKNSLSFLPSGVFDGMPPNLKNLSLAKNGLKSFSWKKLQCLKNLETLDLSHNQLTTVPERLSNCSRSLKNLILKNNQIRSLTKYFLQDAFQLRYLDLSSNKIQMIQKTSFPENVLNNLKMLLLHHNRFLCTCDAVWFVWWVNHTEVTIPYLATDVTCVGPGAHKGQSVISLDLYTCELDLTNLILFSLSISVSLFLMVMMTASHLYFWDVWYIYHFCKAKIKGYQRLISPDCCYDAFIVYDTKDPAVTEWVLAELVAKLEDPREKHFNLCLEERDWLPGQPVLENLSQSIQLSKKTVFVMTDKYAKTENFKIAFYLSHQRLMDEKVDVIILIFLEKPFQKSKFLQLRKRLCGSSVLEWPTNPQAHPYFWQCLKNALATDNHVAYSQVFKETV
Method in brief: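 HEK-Blue TLR7 cells (15,000/well) treated with compound for 18 h at 37 °C, 5% CO2. Secreted SEAP measured with Quanti-Blue, 30 min, OD 620 nm. EC50 taken as concentration giving half-maximal response between baseline and maximum.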

SMILES | EC50 (CD69; Homo sapiens, 17 h) [µM] | EC50 (human TLR7) [µM] | EC50 (CD69; 17 hrs) [µM]
CCC[C@@H](CCO)Nc1nc(N)nc2cnn(Cc3ccc(C4CN(CCO)CCN4)cc3OC)c12 (stereo partly drawn) [Compound 181, (3S)-3-{[5-amino-1-({4-[4-(2-hydroxyethyl)piperazin-2-yl]-2-methoxyphenyl}methyl)-1H-pyrazolo[4,3-d]pyrimidin-7-yl]amino}hexan-1-ol] | 0.00457 | 0.139 | 
CCC[C@@H](CCO)Nc1nc(N)nc2cnn(Cc3ccc(C4CN(C(C)C)CCN4)cc3OC)c12 (stereo partly drawn) [Compound 182, (3S)-3-{[5-amino-1-({2-methoxy-4-[4-(propan-2-yl)piperazin-2-yl]phenyl}methyl)-1H-pyrazolo[4,3-d]pyrimidin-7-yl]amino}hexan-1-ol] | 0.00028 | 0.0068 | 
CCC[C@@H](CCO)Nc1nc(N)nc2cnn(Cc3ccc(C4CN(C(C)C)CCN4)cc3OC)c12 (stereo partly drawn) [Compound 184, (3S)-3-{[5-amino-1-({2-methoxy-4-[4-(propan-2-yl)piperazin-2-yl]phenyl}methyl)-1H-pyrazolo[4,3-d]pyrimidin-7-yl]amino}hexan-1-ol] |  | 0.0065 | 0.00015
CCC[C@@H](CCO)Nc1nc(N)nc2cnn(Cc3nc(C4CCNCC4)ccc3OC)c12 [Compound 186, (3S)-3-[(5-amino-1-{[3-methoxy-6-(piperidin-4-yl)pyridin-2-yl]methyl}-1H-pyrazolo[4,3-d]pyrimidin-7-yl)amino]hexan-1-ol] | 0.242 | 1.65 | 
CCC[C@@H](CCO)Nc1nc(N)nc2cnn(Cc3nc(C4CCN(C(=O)CN(C)C)CC4)ccc3OC)c12 [Compound 187, 1-(4-{6-[(5-amino-7-{[(3S)-1-hydroxyhexan-3-yl]amino}-1H-pyrazolo[4,3-d]pyrimidin-1-yl)methyl]-5-methoxypyridin-2-yl}piperidin-1-yl)-2-(dimethylamino)ethan-1-one] | 0.0805 | 0.402 | 
CCC[C@@H](CCO)Nc1nc(N)nc2cnn(Cc3nc(C4CCN(CCO)CC4)ccc3OC)c12 [Compound 188, (3S)-3-{[5-amino-1-({6-[1-(2-hydroxyethyl)piperidin-4-yl]-3-methoxypyridin-2-yl}methyl)-1H-pyrazolo[4,3-d]pyrimidin-7-yl]amino}hexan-1-ol] | 0.0837 | 0.29 | 
CCC[C@@H](CCO)Nc1nc(N)nc2cnn(Cc3nc(C4CCN(C5CCOCC5)CC4)ccc3OC)c12 [Compound 189, (3S)-3-{[5-amino-1-({3-methoxy-6-[1-(oxan-4-yl)piperidin-4-yl]pyridin-2-yl}methyl)-1H-pyrazolo[4,3-d]pyrimidin-7-yl]amino}hexan-1-ol] | 0.0098 | 0.0853 | 
CCC[C@@H](CCO)Nc1nc(N)nc2cnn(Cc3nc(C4CCN(C(C)C)CC4)ccc3OC)c12 [Compound 190, (3S)-3-{[5-amino-1-({3-methoxy-6-[1-(propan-2-yl)piperidin-4-yl]pyridin-2-yl}methyl)-1H-pyrazolo[4,3-d]pyrimidin-7-yl]amino}hexan-1-ol] | 0.0267 | 0.175 | 
CCC[C@@H](CCO)Nc1nc(N)nc2cnn(Cc3nc(C4CCN(C)CC4)ccc3OC)c12 [Compound 191, (3S)-3-[(5-amino-1-{[3-methoxy-6-(1-methylpiperidin-4-yl)pyridin-2-yl]methyl}-1H-pyrazolo[4,3-d]pyrimidin-7-yl)amino]hexan-1-ol] | 0.0358 | 0.221 | 
CCCCNc1nc(N)nc2cnn(Cc3cc(F)c(N4CCNCC4)cc3OC)c12 [Compound 192, N7-butyl-1-{[5-fluoro-2-methoxy-4-(piperazin-1-yl)phenyl]methyl}-1H-pyrazolo[4,3-d]pyrimidine-5,7-diamine] | 0.0582 | 0.193 | 
CCCCNc1nc(N)nc2cnn(Cc3cc(F)c(N4CCN(S(C)(=O)=O)CC4)cc3OC)c12 [Compound 193, N7-butyl-1-{[5-fluoro-4-(4-methanesulfonylpiperazin-1-yl)-2-methoxyphenyl]methyl}-1H-pyrazolo[4,3-d]pyrimidine-5,7-diamine] | 0.529 | 0.0849 | 
CCCCNc1nc(N)nc2cnn(Cc3cc(F)c(N4CCN(C(=O)CN5CC(OC)C5)CC4)cc3OC)c12 [Compound 194, 1-[4-(4-{[5-amino-7-(butylamino)-1H-pyrazolo[4,3-d]pyrimidin-1-yl]methyl}-2-fluoro-5-methoxyphenyl)piperazin-1-yl]-2-(3-methoxyazetidin-1-yl)ethan-1-one] | 0.0371 | 0.0631 | 
CCCCNc1nc(N)nc2cnn(Cc3cc(F)c(N4CCN(C(=O)CNC5CCOCC5)CC4)cc3OC)c12 [Compound 195, 1-[4-(4-{[5-amino-7-(butylamino)-1H-pyrazolo[4,3-d]pyrimidin-1-yl]methyl}-2-fluoro-5-methoxyphenyl)piperazin-1-yl]-2-[(oxan-4-yl)amino]ethan-1-one] | 0.128 | 0.0533 | 
CCCCNc1nc(N)nc2cnn(Cc3cc(F)c(N4CCN(C(=O)CNCC(C)(C)O)CC4)cc3OC)c12 [Compound 196, 1-[4-(4-{[5-amino-7-(butylamino)-1H-pyrazolo[4,3-d]pyrimidin-1-yl]methyl}-2-fluoro-5-methoxyphenyl)piperazin-1-yl]-2-[(2-hydroxy-2-methylpropyl)amino]ethan-1-one] | 0.081 | 0.131 | 
CCCCNc1nc(N)nc2cnn(Cc3cc(F)c(N4CCN(C(=O)CNCCS(C)(=O)=O)CC4)cc3OC)c12 [Compound 197, 1-[4-(4-{[5-amino-7-(butylamino)-1H-pyrazolo[4,3-d]pyrimidin-1-yl]methyl}-2-fluoro-5-methoxyphenyl)piperazin-1-yl]-2-[(2-methanesulfonylethyl)amino]ethan-1-one] | 1 | 0.32 | 
CCCCNc1nc(N)nc2cnn(Cc3cc(F)c(N4CCN(C(=O)CN5CCC[C@H]5CO)CC4)cc3OC)c12 [Compound 198, 1-[4-(4-{[5-amino-7-(butylamino)-1H-pyrazolo[4,3-d]pyrimidin-1-yl]methyl}-2-fluoro-5-methoxyphenyl)piperazin-1-yl]-2-[(2S)-2-(hydroxymethyl)pyrrolidin-1-yl]ethan-1-one] | 0.0509 | 0.0482 | 
CCCCNc1nc(N)nc2cnn(Cc3cc(F)c(N4CCN(C(=O)CN5CC(O)C5)CC4)cc3OC)c12 [Compound 199, 1-[4-(4-{[5-amino-7-(butylamino)-1H-pyrazolo[4,3-d]pyrimidin-1-yl]methyl}-2-fluoro-5-methoxyphenyl)piperazin-1-yl]-2-(3-hydroxyazetidin-1-yl)ethan-1-one] | 1 | 0.339 | 
